Assay results: PMC12040169 (PLOS Biology, 2025)

Assay: in vitro
Conditions: human, hela cells, % viability

Row | SMILES | viability at 28.5 h, 10 µM [%]
1 | CCOc1cc(S(=O)(=O)NCCCN2CCOCC2)ccc1Br [CBK270111] | 87.4
2 | OCc1nc2ccccc2n1CCCCOc1ccccc1Cl [CBK270117] | 106
3 | O=C(O)CCCn1cc(NC(=O)c2cccs2)cn1 [CBK270122] | 88.1
4 | CC(=O)NCc1nnc2c3ccccc3c(-c3ccccc3)nn12 [CBK270123] | 92.3
5 | Cc1cccc(Cn2nc(C)c(NC(=O)c3ccncc3)c2C)c1 [CBK270126] | 97.2
6 | O=C(CCn1cnnn1)Nc1cc(C(F)(F)F)ccc1Cl [CBK270127] | 91.4
7 | CCOC(=O)C1CCN(CCOc2ccc3ccccc3c2)CC1 [CBK270128C] | 95.4
8 | Cc1cc(CNC(=O)COc2ccc(C#N)cc2)c2ccccc2n1 [CBK270129] | 87.6
9 | COc1ccc(-c2ccc(=O)n(CCN)n2)cc1 [CBK270130C] | 97.2
10 | CN(C)S(=O)(=O)c1cccc(C(=O)NCc2ccco2)c1 [CBK270135] | 94.7
11 | Cc1ccc(NC(=O)CSc2cnn[nH]2)cc1 [CBK270136] | 86.2
12 | O=C(NCCCO)C1CCCN(S(=O)(=O)c2ccc3ccccc3c2)C1 (stereo not shown) [CBK270141] | 88.3
13 | CCC(Oc1ccccc1C)C(=O)Nc1ccccc1C(=O)N(C)C (stereo not shown) [CBK270144] | 88.4
14 | CCOc1ccc(N2C(=O)CC(N3CCN(CCc4ccccn4)CC3)C2=O)cc1 (stereo not shown) [CBK270149] | 95.8
15 | CNC(=O)c1ccc(OC)c(S(=O)(=O)NC)c1 [CBK270153] | 88.9
16 | O=C1CC(c2ccc(S(=O)(=O)NCc3ccccc3)cc2)CN1 (stereo not shown) [CBK270155] | 87.5
17 | Fc1ccc(-c2ccc(CNCc3ccncc3)o2)cc1 [CBK270158C] | 92.7
18 | CC1(C)Cc2cccc(OCC(=O)O)c2O1 [CBK270161] | 100
19 | Cc1ccc(-c2cc(O)n(-c3nc(C)cc(C)n3)n2)cc1 [CBK270165] | 97.1
20 | FC(F)(F)c1ccc(Oc2ccc(-c3noc(-c4cccnc4)n3)cc2)nc1 [CBK270166] | 90.3
21 | O=C(Nc1ccc2c(c1)oc1ccccc12)C1CCCO1 (stereo not shown) [CBK270168] | 81.9
22 | CCN1CCN(c2ccc(C(=O)OC)cc2NC(=O)c2ccc(C#N)cc2F)CC1 [CBK270171] | 101
23 | Cc1cc(-c2cccs2)c(C#N)c(SCc2cccnc2)n1 [CBK270172] | 81
24 | COC(=O)COc1ccc2cccc(-n3cnnn3)c2c1 [CBK270173] | 84.7

Row | SMILES | viability at 28.5 h, 10 µM [%]
25 | O=C(NCc1ccccn1)C1CC(=O)N(c2ccccc2)C1 (stereo not shown) [CBK270175] | 88.7
26 | O=C1CC(C(=O)Nc2ccc3c(c2)OCO3)n2c(nc3ccccc32)N1 (stereo not shown) [CBK270177] | 93.6
27 | CNS(=O)(=O)c1cc(C(=O)NCc2ccco2)ccc1OC [CBK270180] | 103
28 | O=C(CN1CCN(c2ncccn2)CC1)N1N=CCC1c1ccccc1 (stereo not shown) [CBK270184] | 89.4
29 | CCOC(=O)c1cnc2nc3ccccc3n2c1C [CBK270185] | 95.4
30 | O=C(COc1nc2ccccc2s1)N1N=CCC1c1ccccc1 (stereo not shown) [CBK270188] | 92.7
31 | CNc1sc(C(=O)c2ccc(OC)c(OC)c2)c(N)c1C#N [CBK270194] | 86.1
32 | Cc1cc(C)c(S(=O)(=O)NC(C)C)c(C)c1-n1cnnn1 [CBK270197] | 96.5
33 | Cc1nn2c(C)c(C(=O)Nc3ccccc3)nnc2c1-c1ccccc1 [CBK270198] | 85.6
34 | COc1ccc(C(=O)N2CCN(c3ccc(NC(=O)c4cccnc4)cc3)CC2)cc1 [CBK270200] | 85.5
35 | COc1ccc(-c2cc(C(F)(F)F)c3c(n2)sc2c(=O)cc(O)[nH]c23)cc1OC [CBK270201] | 84.6
36 | O=C(CC1SCCNC1=O)NCc1ccccc1 (stereo not shown) [CBK270202] | 99.1
37 | COCC(C)NS(=O)(=O)c1cc(Cl)ccc1OC (stereo not shown) [CBK270203] | 90.7
38 | COc1ccc(C)cc1NC(=O)CSc1nc(C)cc(C(F)(F)F)n1 [CBK270205] | 96
39 | Cc1ccc2c(c1)N(CC(N)=O)C(=O)CO2 [CBK270208] | 92.9
40 | Cc1cccc(-c2noc(CNC(=O)CSc3ccccc3)n2)c1 [CBK270209] | 98.3
41 | Cn1c(=O)n(C)c2cc(NC3=NS(=O)(=O)c4ccccc43)ccc21 [CBK270210] | 91.9
42 | O=C(O)c1ccccc1CSc1ccccn1 [CBK270213] | 98
43 | Cc1ccc(NC(=O)CC2Nc3ccccc3OC2=O)cc1C (stereo not shown) [CBK270214] | 81.5
44 | Cc1nc2ccccc2nc1SCc1nc(N)nc(N2CCCCC2)n1 [CBK270218] | 92.2
45 | CCC(=O)NCc1ccc(-c2nc3ncccc3o2)cc1 [CBK270220] | 108
46 | Cc1nc2ccc(NC(=O)c3cccc(C(F)(F)F)c3)cc2nc1C [CBK270221] | 88.2
47 | COC(=O)c1ccc(N2CCOCC2)c(NC(=O)COc2ccccc2)c1 [CBK270222] | 84.6
48 | O=C(Nc1cccc(-c2noc(CCc3ccccc3)n2)c1)c1cccs1 [CBK270225] | 87.4

Row | SMILES | viability at 28.5 h, 10 µM [%]
49 | Cc1cc(C)nc(-n2ncc(C#N)c2N)n1 [CBK270227] | 87
50 | CCN(Cc1nc(-c2ccccc2)no1)C(=O)c1ccoc1C [CBK270229] | 89.3
51 | Nc1nc(CN2CCN(c3ccccc3F)CC2)nc(N2CCCc3ccccc32)n1 [CBK270234] | 87.4
52 | Cc1nnc(SCC(=O)NC2CC3CCC2C3)[nH]1 (stereo not shown) [CBK270239] | 88.1
53 | CC(C)(C)c1ccc(-c2cc(C3CCNCC3)n[nH]2)cc1 [CBK270240] | 94
54 | COCC(C)NC(=O)C1CCCN(S(=O)(=O)c2ccc(OC)c(C)c2)C1 (stereo not shown) [CBK270242] | 86
55 | O=C(Nc1cccc(-c2noc(Cc3ccccc3)n2)c1)c1cccs1 [CBK270244] | 101
56 | COc1ccc(C(=O)Nc2ccc(N3CCN(C(=O)C(C)(C)C)CC3)cc2)cc1OC [CBK270245] | 90.6
57 | O=C(CSc1nncc(=O)[nH]1)NCc1ccccc1 [CBK270246] | 85.3
58 | COC(=O)CSc1nnc(-c2cc(Cl)ccc2OC)[nH]1 [CBK270248] | 97
59 | CCOc1ccc(S(=O)(=O)NCCOC)cc1Cl [CBK270251] | 91.5
60 | COc1cc(CNCc2ccc(F)cc2)cc(Cl)c1OCC(N)=O [CBK270256C] | 89
61 | CCOc1cccc2cc(C(=O)N3CCN(Cc4ccccc4)CC3)c(=O)oc12 [CBK270259C] | 74.3
62 | Fc1cccc(-c2nc(-c3cccnc3)no2)c1 [CBK270260] | 92.6
63 | CCOC(=O)CSc1nc(-c2ccc3c(c2)OCO3)ccc1C#N [CBK270262] | 87.6
64 | COc1ccc(-c2noc(CN(C(C)=O)C3CCCCC3)n2)cc1 [CBK270264] | 111
65 | Cc1ccc2c(N)c(C(=O)c3ccc4c(c3)OCCO4)sc2n1 [CBK270265] | 84.2
66 | CCCc1cc(O)n(-c2nc3ccccc3[nH]2)n1 [CBK270269] | 82.7
67 | CC(C(=O)N1CCOCC1)N(c1cc(Cl)ccc1Cl)S(C)(=O)=O (stereo not shown) [CBK270270] | 88.8
68 | COc1cccc(CNCc2ccco2)c1OCc1ccccc1F [CBK270271C] | 92.6
69 | O=C(Nc1ccccc1C(=O)N1CCOCC1)C1CCN(C(=O)c2ccco2)CC1 [CBK270272] | 105
70 | Cc1ccc(Cc2c(C)[nH]c3[nH]n(-c4ccccc4)c(=O)c3c2=O)cc1 [CBK270273] | 83.7
71 | O=C(NCCc1cccs1)C(c1ccccc1)c1ccccc1 [CBK270275] | 90.1
72 | O=C(O)c1ccc(CN2C(=O)COc3ccccc32)o1 [CBK270276] | 104

Row | SMILES | viability at 28.5 h, 10 µM [%]
73 | CNS(=O)(=O)c1cc(C(=O)NCc2ccccc2)ccc1OC [CBK270277] | 94.9
74 | CC(O)CNCc1ccccc1OCc1ccccc1F (stereo not shown) [CBK270278C] | 93.2
75 | COc1ccc(-c2c3c(nc4sc(C#N)c(N)c24)CCCC3)cc1 [CBK270279] | 80
76 | COc1ccc(NC(=O)C2CC(=O)NC3=C2C(=O)CC(c2ccco2)C3)cc1 (stereo not shown) [CBK270282] | 90.6
77 | O=C(Nc1cccc(-c2noc(-c3ccccn3)n2)c1)c1cccs1 [CBK270283] | 88.9
78 | O=C1CC(c2ccccc2O)CC2=C1C=Nc1ccccc1N2 (stereo not shown) [CBK270287] | 97.4
79 | CCOC(=O)c1ccsc1NC(=O)C1CC=CCC1C(=O)O (stereo not shown) [CBK270291] | 97.5
80 | NC(=O)c1ccccc1NC(=O)CN1CCN(Cc2cccc(F)c2)CC1 [CBK270292] | 85.9
81 | O=C(O)C1CCCCC1C(=O)N1CCN(Cc2cccc3ccccc23)CC1 (stereo not shown) [CBK270293] | 91.2
82 | Cc1ccccc1CN1CCN(CC(=O)Nc2ccccc2C(N)=O)CC1 [CBK270296] | 94.1
83 | Cc1c(Cl)cccc1NC(=O)CSc1nccn1C [CBK270297] | 91.5
84 | O=C(O)COCC(=O)N1CCN(CCc2ccccc2)CC1 [CBK270298] | 107
85 | Cc1cccc(-c2nc(CN3CCOCC3)cs2)c1 [CBK270299] | 103
86 | CCCN1CCN(CC(=O)NCc2ccco2)CC1 [CBK270300] | 84.2
87 | COc1ccc(NC(=O)C2CCCCC2C(=O)O)c(C)c1 (stereo not shown) [CBK270301] | 83.9
88 | CCn1cc(S(=O)(=O)Nc2cc(C)on2)cn1 [CBK270302] | 84.3
89 | COc1ccc(NC(=O)CSc2nnc(C3CC3)n2C)c(OC)c1 [CBK270303] | 81.9
90 | CCn1cc(S(=O)(=O)NCc2ccccc2OC)cn1 [CBK270304] | 98.1
91 | COc1cc(NC(=O)CSc2nncn2C)c(OC)cc1Cl [CBK270307] | 86.4
92 | Cc1occc1-c1nnc(SCC(=O)Nc2ccccc2)n1C [CBK270308] | 84.9
93 | CN(C)CCNC(=O)c1cccc(Oc2ccccc2)c1 [CBK270310] | 83.1
94 | CCc1cc(C(=O)OC)c(NC(=O)C2C3C=CC(C3)C2C(=O)O)s1 (stereo not shown) [CBK270315] | 94.9
